Source: patent publication US20070048247A1, “Deodorizing tablets” (Kimberly-Clark Worldwide, Inc., priority 2005, published 2007)

Assays:
[1] = Redox potential (redox potentiometry); type: physicochemical
From the text: The ability of quinone compounds to accept electrons from another substance (i.e., be reduced) may be quantified using a technique known as redox potentiometry. Redox potentiometry is a technique that measures (in volts) the affinity of a substance for electrons—its electronegativity—compared with hydrogen (which is set at 0). Substances more strongly electronegative than (i.e., capable of oxidizing) hydrogen have positive redox potentials. Substances less electronegative than (i.e., capable of reducing) hydrogen have negative redox potentials. The greater the difference between the redox potentials of two substances (ΔE), the greater the vigor with which electrons will flow spontaneously from the less positive to the more positive (more electronegative) substance. As is well known in the art, redox potential may be measured using any of a variety of commercially available meters, such as an Oxidation Reduction Potential (ORP) tester commercially available from Hanna Instruments, Inc. of Woonsocket, R. I. The redox potential of the quinone compounds may, for instance, be less than about −50 millivolts (mV), in some embodiments less than about −150 mV, in some embodiments less than about −300 mV, and in some embodiments, less than about −500 mV. Although not always the case, the redox potential may vary based on the number and location of functional groups, such as sulfonic acid, on the quinone structure. For example, 2-sulfonic acid anthraquinone has a redox potential of −380 mV; 2,6-disulfonic acid anthraquinone has a redox potential of −325 mV; and 2,7-disulfonic acid anthraquinone has a redox potential of −313 mV. Likewise, 2-sulfonic acid naphthaquinone has a redox potential of −60 mV. The use of other functional groups may also have an affect on the ultimate redox potential of the compound. For example, Acid Blue 25, which also contains amino- and aramid functional groups, has a redox potential of −605 mV.

[2] = Example 3 urine odor panel ranking; set-up: species or system Human; details: for Average Urine Odor Ranking (with statistical corrections), Avg. Score: ignoring statistical anomalies
Procedure: (§1) The effectiveness of various quinone compounds in reducing urine odor was compared. […] Human female urine was initially collected and pooled by a nurse on staff at Kimberly-Clark Corporation. The pooled urine was added to mason jars in 50-milliliter aliquots using an automated pipette aid. […] The mason jars were placed in an incubator overnight at 37° C.
(§2) In addition to ranking the jars from least to most malodorous (on a scale from 1 to 7, with 7 being the most malodors), panelists were also asked to judge whether there were secondary (non-urine) odors present and, if so, the extent that the secondary odors were unpleasant (on a scale from 1 to 5, with 5 being extremely unpleasant).
In this assessment, panelists were given instructions to rank the least malodorous jar as “1” and the most malodorous jar as “10,” remaining free to rank the other jars between 2-9.

[3] = Example 7 urine odor panel ranking (16 millimolar); set-up: species or system Human; details: 16 millimolar in urine, 1 least, 10 most urine malodor
Procedure: The effectiveness of various quinone compounds in reducing urine odor was compared. […] Human female urine was initially collected and pooled at Kimberly-Clark Corporation. The pooled urine was added to mason jars in 50-milliliter aliquots using an automated pipette aid. Powders of the aforementioned quinone compounds (commercially available from Sigma-Aldrich Chemical Co., Inc. of St. Louis, Missouri and Noveon Hilton Davis, Inc. of Cincinnati, Ohio) were weighed and placed into the mason jars containing 50 milliliters of urine so that the final concentration of the powder was 16 millimolar (equivalent to 1 wt. %). The mason jars were placed in an incubator overnight at 37° C. The experimental setup is set forth in more detail below in Table 21.
Jars were wrapped in foil and placed in an incubator at 37° C. overnight. The jars were divided into four groups (C-F), each sharing the same control jar of urine alone (no powder). Assessments were conducted the following day by asking panelists to rate each jar from 1 (least urine malodor) to 10 (most urine malodor).

[4] = Example 3 secondary (non-urine) odor ranking; set-up: species or system Human; details: individual panelist scores, scale 1 to 5, 5 extremely unpleasant
Procedure: as §1, §2

[5] = Example 5 urine odor panel ranking; set-up: species or system Human
Procedure: Assessments were conducted the following day by asking panelists to rate each jar from 1 (least urine malodor) to 8 (most urine malodor). The results are set forth below in Tables 15-18.

[6] = Solubility of powder in urine
[7] = Example 1 urine odor panel ranking; set-up: species or system Human; details: 8 millimolar in urine; for Avg. Ranking (odor) / Ranking 4 (number of panelists) / Ranking 5 (number of panelists) / Ranking 1 (number of panelists) / Ranking 3 (number of panelists) / Ranking 7 (number of panelists): 1 least, 10 most malodorous
From the text: Human female urine was initially collected and pooled by a nurse on staff at Kimberly-Clark Corporation. […] Powders of Acid Blue 129 and Acid Green 27 (commercially available from Sigma-Aldrich Chemical Co., Inc. of St. Louis, Mo.), as well as D&C Green No. 5 (commercially available from Noveon Hilton Davis, Inc. of Cincinnati, Ohio), were then weighed and placed into the mason jars containing 50 milliliters of urine so that the final concentration of the powder was 8 millimolar (equivalent to 0.5 wt. %). […] A score of “10” was assigned to the most malodorous jar and a score of “1” was assigned to the least malodorous jar.

[8] = Example 6 urine odor panel ranking; set-up: species or system Human; details: as Example 5, 1 least, 8 most urine malodor
From the text: The quinone compounds chosen for this example were Alizarin Blue Black B, Remazol Brilliant Blue R and Acid Green 25. The results are set forth below in Tables 19 and 20.

[9] = Example 3 second grouping, 8 millimolar in urine, 1 least malodorous
[10] = Example 3 top performers of both groupings, after 24 hours, 1 least, 10 most malodorous
[11] = Example 3 top performers, after 24 hours, 1 least, 10 most malodorous
[12] = Example 3 top performers, after 24 hours
[13] = Example 5 Group A, 8 mM in urine, 1 least, 8 most urine malodor
[14] = Example 5, 8 mM in 50 milliliters of urine
[15] = Example 7, 16 mM in 50 milliliters of urine
[16] = Example 3 first grouping, 8 millimolar in urine, scale 1 to 7, 7 most malodorous
[17] = Example 5 Group B, 8 mM in urine, 1 least, 8 most urine malodor

In the case of `O=C1c2ccc(S(=O)(=O)O)cc2C(=O)c2ccc(S(=O)(=O)O)cc21` [2,6-disulfonic acid anthraquinone], the redox potential [1] is reported as −325 mV.

For `CCCCc1ccc(Nc2ccc(Nc3ccc(CCCC)cc3S(=O)(=O)[O-])c3c2C(=O)c2ccccc2C3=O)c(S(=O)(=O)[O-])c1.[Na+].[Na+]` [Acid Green 27], the “Average Urine Odor Ranking, Avg. Score” value [2, 9] was 3.6, the “Urine Odor Ranking 2 (number of panelists)” value [2, 9] was 2 and the “Urine Odor Ranking 4 (number of panelists)” value [2, 9] was 1. For the same compound, the “Urine Odor Ranking 5 (number of panelists)” value [2, 9] was 2, the “Urine Odor Ranking 2 (number of panelists)” value [2, 10] was 1 and the “Urine Odor Ranking 8 (number of panelists)” value [2, 10] was 2. For the same compound, the “Urine Odor Ranking 9 (number of panelists)” value [2, 10] was 1, the “Urine Odor Ranking 10 (number of panelists)” value [2, 10] was 1 and the “Average Urine Odor Ranking, Avg. Score” value [2, 11] was 6.4. For the same compound, the “Average Urine Odor Ranking (with statistical corrections), Avg. Score” value [2, 12] was 8.8, the “Average Rankings (Group E), Avg. Score” value ([3]; Example 7 Group E) was 6.2 and the “Urine Odor Ranking 1 (number of panelists)” value ([3]; Example 7 Group E) was 1. For the same compound, the “Urine Odor Ranking 5 (number of panelists)” value ([3]; Example 7 Group E) was 1, the “Urine Odor Ranking 7 (number of panelists)” value ([3]; Example 7 Group E) was 1 and the “Urine Odor Ranking 8 (number of panelists)” value ([3]; Example 7 Group E) was 1. The “Urine Odor Ranking 10 (number of panelists)” value ([3]; Example 7 Group E) was 1, the “Secondary Odor Ranking” value ([4]; Example 3 second grouping) was 2 and the “Secondary Odor Ranking” value [4, 12] was 4. The “Average Rankings (Group A), Avg. Score” value [5, 13] was 4.25, the “Urine Odor Ranking 3 (number of panelists)” value [5, 13] was 1 and the “Urine Odor Ranking 4 (number of panelists)” value [5, 13] was 2. The “Urine Odor Ranking 6 (number of panelists)” value [5, 13] was 1, the “Soluble?” value [6, 14] was “Mostly” and the “Soluble?” value [6, 15] was “Mostly”. The “reducing urine malodor (in words)” value [7] was “functioned effectively in reducing urine malodor”, the “Avg. Ranking (odor)” value ([7]; after 6 hours) was 4.4 and the “Ranking 4 (number of panelists)” value ([7]; after 6 hours) was 3. The “Ranking 5 (number of panelists)” value ([7]; after 6 hours) was 2, the “Avg. Ranking (odor)” value ([7]; after 24 hours) was 4.5 and the “Ranking 1 (number of panelists)” value ([7]; after 24 hours) was 1. For the same compound, the “Ranking 3 (number of panelists)” value ([7]; after 24 hours) was 2 and the “Ranking 7 (number of panelists)” value ([7]; after 24 hours) was 3.

For `Cc1ccc(Nc2ccc(Nc3ccc(C)cc3S(=O)(=O)[O-])c3c2C(=O)c2c(O)ccc(O)c2C3=O)c(S(=O)(=O)[O-])c1.[Na+].[Na+]` [Acid Green 41], the “urine odor reduction (in words)” value ([2]; Example 3 first grouping) was “functioned effectively to reduce odor”, the “Average Urine Odor Ranking, Avg. Score” value [2, 16] was 2.4 and the “Urine Odor Ranking 1 (number of panelists)” value [2, 16] was 1. For the same compound, the “Urine Odor Ranking 2 (number of panelists)” value [2, 16] was 2, the “Urine Odor Ranking 3 (number of panelists)” value [2, 16] was 1 and the “Urine Odor Ranking 4 (number of panelists)” value [2, 16] was 1. The “Urine Odor Ranking 1 (number of panelists)” value [2, 10] was 1, the “Urine Odor Ranking 2 (number of panelists)” value [2, 10] was 2 and the “Urine Odor Ranking 3 (number of panelists)” value [2, 10] was 1. The “Urine Odor Ranking 7 (number of panelists)” value [2, 10] was 1, the “odor reduction (in words)” value [2, 12] was “achieved the best odor reduction” and the “Average Urine Odor Ranking, Avg. Score” value [2, 11] was 3.0. The “Average Urine Odor Ranking (with statistical corrections), Avg. Score” value [2, 12] was 2.0, the “Average Rankings (Group D), Avg. Score” value ([3]; Example 7 Group D) was 1.4 and the “Urine Odor Ranking 1 (number of panelists)” value ([3]; Example 7 Group D) was 4. The “Urine Odor Ranking 3 (number of panelists)” value ([3]; Example 7 Group D) was 1, the “Secondary Odor Ranking” value ([4]; Example 3 first grouping) was 1 and the “Average Rankings (Group A), Avg. Score” value [5, 13] was 4.25. For the same compound, the “Urine Odor Ranking 2 (number of panelists)” value [5, 13] was 1, the “Urine Odor Ranking 3 (number of panelists)” value [5, 13] was 1 and the “Urine Odor Ranking 5 (number of panelists)” value [5, 13] was 1. The “Urine Odor Ranking 7 (number of panelists)” value [5, 13] was 1, the “Soluble?” value [6, 14] was “Yes” and the “Soluble?” value [6, 15] was “Yes”. The “Average Rankings, Avg. Score” value [8] was 5.25, the “Urine Odor Ranking 3 (number of panelists)” value [8] was 1 and the “Urine Odor Ranking 4 (number of panelists)” value [8] was 1. For the same compound, the “Urine Odor Ranking 6 (number of panelists)” value [8] was 1 and the “Urine Odor Ranking 8 (number of panelists)” value [8] was 1.

In the case of `Cc1ccc(Nc2ccc(Nc3ccc(C)cc3S(=O)(=O)[O-])c3c2C(=O)c2ccccc2C3=O)c(S(=O)(=O)[O-])c1.[Na+].[Na+]` [D&C Green No. 5], the “urine odor reduction (in words)” value ([2]; Example 3 second grouping) is reported as “did not perform as well compared to the other quinone compounds”, the “Urine Odor Ranking 4 (number of panelists)” value [2, 9] is reported as 3 and the “Urine Odor Ranking 5 (number of panelists)” value [2, 9] is reported as 2. For the same compound, the “Urine Odor Ranking 2 (number of panelists)” value [2, 10] was 1, the “Urine Odor Ranking 4 (number of panelists)” value [2, 10] was 1 and the “Urine Odor Ranking 7 (number of panelists)” value [2, 10] was 2. For the same compound, the “Urine Odor Ranking 10 (number of panelists)” value [2, 10] was 1, the “Average Urine Odor Ranking, Avg. Score” value [2, 11] was 6.0 and the “Average Urine Odor Ranking (with statistical corrections), Avg. Score” value [2, 12] was 7.0. For the same compound, the “Average Rankings (Group D), Avg. Score” value ([3]; Example 7 Group D) was 7, the “Urine Odor Ranking 5 (number of panelists)” value ([3]; Example 7 Group D) was 2 and the “Urine Odor Ranking 7 (number of panelists)” value ([3]; Example 7 Group D) was 1. The “Urine Odor Ranking 9 (number of panelists)” value ([3]; Example 7 Group D) was 2, the “Secondary Odor Ranking” value ([4]; Example 3 second grouping) was 4 and the “Secondary Odor Ranking” value [4, 12] was 4. The “odor reduction performance (in words)” value ([5]; Example 5 Group B) was “performed well”, the “Average Rankings (Group B), Avg. Score” value [5, 17] was 4.25 and the “Urine Odor Ranking 2 (number of panelists)” value [5, 17] was 1. For the same compound, the “Urine Odor Ranking 3 (number of panelists)” value [5, 17] was 1, the “Urine Odor Ranking 5 (number of panelists)” value [5, 17] was 1 and the “Urine Odor Ranking 7 (number of panelists)” value [5, 17] was 1. The “Soluble?” value [6, 14] was “Yes”, the “Soluble?” value [6, 15] was “Yes” and the “Average Rankings, Avg. Score” value [8] was 6.25. For the same compound, the “Urine Odor Ranking 5 (number of panelists)” value [8] was 2, the “Urine Odor Ranking 7 (number of panelists)” value [8] was 1 and the “Urine Odor Ranking 8 (number of panelists)” value [8] was 1. For the same compound, the “reducing urine malodor (in words)” value [7] was “functioned effectively in reducing urine malodor”, the “Avg. Ranking (odor)” value ([7]; after 6 hours) was 3.0 and the “Ranking 1 (number of panelists)” value ([7]; after 6 hours) was 1. For the same compound, the “Ranking 3 (number of panelists)” value ([7]; after 6 hours) was 3, the “Ranking 5 (number of panelists)” value ([7]; after 6 hours) was 1 and the “Avg. Ranking (odor)” value ([7]; after 24 hours) was 5.2. The “Ranking 4 (number of panelists)” value ([7]; after 24 hours) was 3, the “Ranking 5 (number of panelists)” value ([7]; after 24 hours) was 1 and the “Ranking 7 (number of panelists)” value ([7]; after 24 hours) was 2.
